Measurements published in patent US20260263413A1 (priority 2019, published 2026).

Columns and labels:
[1] = Pharmacokinetic (PK) data from intravenous (IV) administration of DHM, blood samples analysed by LC-MS/MS; format: in vivo, Sprague-Dawley rats; conditions: Sprague-Dawley, rat, 1 mg/kg
Experimental: The DUNHM was administered in an 0.9% saline solution. No sodium caprate (sodium decanoate, Na caprate) was administered.

[2] = Pharmacokinetic (PK) data from oral administration of DHM in enteric capsules, with or without sodium caprate; format: in vivo, Sprague-Dawley rats; conditions: Sprague-Dawley, rat, blood; for Tmax / AUC / Cmax: po; for AUC: DHM AUC; for Cmax: DHM Cmax
[3] = background statement, ref. [31]; cited from earlier work
in vivo = conditions: Sprague-Dawley, rat, 1.3 mg/kg
Experimental: A pharmacokinetic study can be carried out to evaluate animal pharmacokinetics.
A blood sample was collected from each rat at predetermined times and analyzed with LC-MS/MS. […] Error bars for each point in time based on the results for each of the rats in the set are shown. […] Bioavailability (Fabs) was calculated as
where AUCoral and Doral indicate the AUC and dosage for a given oral administration, and AUCIV and Div indicate the AUC and dosage for the intravenous (IV) administration set forth in Example 1, above.
Error bars for each point in time based on the results for each of the rats in the set are shown.

[4] = 1.1 mg/kg, 73.1±1.1 mg/kg crystalline DHM, enteric capsules (Eudragit L100-55 coated), Na caprate:DHM 0:1, FIG. 3A
[5] = 70.6±2.7 mg/kg crystalline DHM, enteric capsules, sodium caprate approx. 141.2 mg/kg (2:1), FIG. 3D
[6] = 75.5±2.0 mg/kg crystalline DHM, enteric capsules, sodium caprate approx. 75.5 mg/kg (1:1), FIG. 3C
[7] = 92.6±3.0 mg/kg crystalline DHM, enteric capsules, sodium caprate approx. 23.2 mg/kg (1:4), FIG. 3B

O=C1c2c(O)cc(O)cc2O[C@H](c2cc(O)c(O)c(O)c2)[C@H]1O [DHM, dihydromyricetin]
AUC [1]: 11.6 ± 4.9 ng·h/mL | Cmax [1]: 12.5 ± 0.5 ng/mL | bioavailability ([2]; 1.1 mg/kg): 19.5 ± 9.5% | Tmax [2, 4]: 5.4 ± 2.6 h | AUC [2, 4]: 167 ± 83.3 ng·h/mL | Cmax [2, 4]: 27.9 ± 1.5 ng/mL | Tmax [2, 5]: 4 h | Tmax [2, 6]: 4 h | Tmax [2, 7]: 6 h | AUC [2, 5]: 431 ± 101 ng·h/mL | AUC [2, 6]: 284 ± 20.1 ng·h/mL | AUC [2, 7]: 222 ± 44.3 ng·h/mL | Cmax [2, 5]: 70.2 ± 6.5 ng/mL | Cmax [2, 6]: 62.3 ± 4.3 ng/mL | Cmax [2, 7]: 52.7 ± 3.6 ng/mL | oral bioavailability [3]: less than 5% | bioavailability (in vivo; DHM Bioavailability (Fabs)): 34.1 ± 12.7% | AUC (in vivo; po, DHM AUC): 314 ± 115 ng·h/mL | Cmax (in vivo; po, DHM Cmax): 46.2 ± 4 ng/mL | Tmax (in vivo; po, Tmax): 4.7 ± 1.8 h
